Laboratory results published in article PMC11504387, “Synthesis and Biological Activity Assessment of 2-Styrylbenzothiazoles as Potential Multifunctional Therapeutic Agents” (Antioxidants, 2024).

Legend:
[1] = In vitro filtering parameters of O/W sunscreen formulation on PMMA plates; settings: 3% in O/W sunscreen formulation
Protocol: Synthesized compounds were incorporated at 3% concentration in a suitable oil-in-water (O/W) emulsion for cosmetic use as sunscreen.
INCI: Aqua, Glycerin, Xanthan Gum, Phenoxyethanol (and) Ethylhexylglycerin, Tribehenin PEG-20 Esters, Cetearyl Alcohol, Dicaprylyl Carbonate, PPG 26 Buteth-26 (and) PEG 40 Hydrogenated Castor Oil, C12-15 Alkyl Benzoate, Sodium hydroxide (sol. 10%).
A protocol previously reported by us was adopted. Briefly, 32.5 mg of each compound formulation was spread on the rough surface of 5 × 5 cm^2 PMMA plates in the form of small drops of approximately equal mass, in triplicate. The plates were placed in the dark for 15–30 min to allow the formation of a sun-stabilised standard layer and then inserted into the instrument and measured at five different points on each plate (UV transmittance range 290–400 nm). The blank was a plate coated with 32.5 mg glycerine, chosen for its non-fluorescence and UV transparency. In addition, in vitro SPF, UVAPF and ʎc values were calculated according to Equations (2)–(4) above. To evaluate the booster effect of selected synthesized compounds, they were incorporated at 3% concentration in an oil-in-water (O/W) sunscreen formulation with fixed SPF and UVAPf values (30 and 10, respectively).
Aiming to create compounds with diverse biological activities, the synthesized 2-styrylbenzothiazoles were examined for potential applications in sunscreens. Each candidate was incorporated into a standard cosmetic formulation at a concentration of 3% and subjected to photoprotective efficacy testing using the Diffey–Robson method. The formulation comprised an oil-in-water (O/W) emulsion suitable for sunscreen use, with each benzothiazole derivative being heat-solubilized in the oil phase and then dispersed into the emulsion using a turbo emulsifier. The mixture was then cooled, and the emulsion was spread onto polymethylmethacrylate (PMMA) plates before recording the transmittance spectra. The SPF value, UVA protection factor value (UVAPF), the […], and the critical wavelength (λc) were determined from the transmittance spectra using SPF calculator software and are presented in Table 3. These parameters are essential for evaluating the efficacy of potential sunscreen products.

[2] = molecular target: T1, 5-LO in A23187-stimulated human PMNL (Homo sapiens, UniProt P09917); assay: 5-Lipoxygenase inhibition in a cell-based assay (PMNL); settings: for remaining activity at 10 µM: PMNL, % relative to vehicle (DMSO), read-out: 5-LO Residual Activity (PMNL, 10 µM); for IC50: activated PMNL
T1 construct: Freshly isolated PMNL (1 × 10^6 cells/mL) in PBS buffer pH 7.4; endogenous in cells; host or cells: primary human PMNL (neutrophils) isolated from blood
T1 sequence (P09917 1-674): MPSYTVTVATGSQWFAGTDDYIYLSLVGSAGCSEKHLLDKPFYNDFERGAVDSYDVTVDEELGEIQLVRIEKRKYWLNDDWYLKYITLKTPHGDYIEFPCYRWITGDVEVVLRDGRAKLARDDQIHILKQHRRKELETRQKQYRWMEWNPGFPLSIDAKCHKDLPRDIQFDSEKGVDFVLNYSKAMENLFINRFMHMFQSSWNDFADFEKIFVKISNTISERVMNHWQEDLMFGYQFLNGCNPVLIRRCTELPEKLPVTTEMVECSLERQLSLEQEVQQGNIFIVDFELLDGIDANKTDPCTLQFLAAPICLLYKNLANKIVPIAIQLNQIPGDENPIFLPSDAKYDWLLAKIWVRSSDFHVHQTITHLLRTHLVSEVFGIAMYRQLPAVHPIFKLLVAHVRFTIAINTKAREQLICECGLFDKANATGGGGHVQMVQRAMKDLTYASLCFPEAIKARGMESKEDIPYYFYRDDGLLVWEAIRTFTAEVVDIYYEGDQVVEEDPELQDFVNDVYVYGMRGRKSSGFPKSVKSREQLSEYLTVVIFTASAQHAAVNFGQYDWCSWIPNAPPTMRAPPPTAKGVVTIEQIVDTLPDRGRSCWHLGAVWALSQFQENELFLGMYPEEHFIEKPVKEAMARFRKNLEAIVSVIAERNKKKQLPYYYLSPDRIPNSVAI
Protocol: Following blood density centrifugation and cell population separation, PMNL was recovered from the pellet after hypotonic lysis of erythrocytes. Freshly isolated PMNL (1 × 10^6 cells/mL) in PBS buffer pH 7.4 with glucose (1 mg/mL) and CaCl2 (1 mM) was pre-incubated with the test compounds for 10 min at 37 °C. Then, 5-lipoxygenase (5-LO) product formation was started by addition of 2.5 μM Ca^2+-ionophore A23187 plus 20 μM arachidonic acid. The reaction was stopped after 10 min at 37 °C with 1 mL of ice-cold methanol containing 200 ng PGB1 as internal standard. Major 5-LO products (LTB4, trans-LTB4, epi-trans-LTB4, and 5-HETE) were extracted by SPE using Sep-Pak C18 35 cc Vac Cartridges (Waters, Milford, MA, USA) and analysed by UPLC-MS/MS as described by Pein et al..

[3] = Ferric reducing antioxidant power (FRAP) test; type: biochemical; settings: Trolox equivalents; mean ± SD
Protocol: The FRAP test, based on a colorimetric reaction, can assess the ability of a sample to reduce ferric ions to ferrous ions when complexed with 2,4,6-trispiridyl-s-triazine (TPTZ). The FRAP solution consisted of 0.1 M acetate buffer (pH 3.6), 10 mmol/L of TPTZ in 40 mM HCl and a 20 mM solution of FeCl3, in a 10:1:1 ratio. A 1.9 mL volume of the FRAP solution was incubated with 0.1 mL of the sample solution at 37 °C for 10 min. The absorbance was then read with a UV-Vis spectrophotometer at a wavelength of 593 nm, which corresponds to the maximum absorbance peak of the Fe^2+-TPTZ complex. Trolox® was used as a standard, and ferulic acid was used as positive control, and the results are expressed as µmol TE/g.

[4] = UV spectrophotometric analysis of compounds in solution; type: physicochemical; settings: for ʎmax: 10 µg/mL solution, DMSO diluted in MeOH; for Ɛ (molar extinction coefficient): at ʎmax, Lambert–Beer equation
Protocol: The synthesized compounds were solubilised in DMSO and diluted in MeOH, and the absorbance of the 10 µg/mL solution was measured between 290–400 nm with a UV-Vis spectrophotometer (SHIMADZU UV-2600 240 V, 1 cm quartz cell at 1 nm intervals). The absorbance at wavelength λ is related to the transmittance T(λ) via the Equation (1): A(λ) = −Log[T(λ)](1) where T(λ) is the fraction of incident irradiance transmitted by the sample. […]
The molar extinction coefficient was calculated with the absorbance recorded at the ʎmax applying the Lambert–Beer equation.

Compound: C(=C\c1nc2ccccc2s1)/c1ccccc1 [BZTst1, (E)-2-styrylbenzo[d]thiazole]
- SPF [1]: 13.88
- UVA/UVB [1]: 0.96
- UVAPF [1]: 7.08
- ʎc (critical wavelength) [1]: 364 nm
- remaining activity at 10 µM [2]: 48.7 ± 10.2%
- FRAP [3]: 331.15 ± 6.29 µmolTE/g
- ʎmax [4]: 335.0 nm
- Ɛ (molar extinction coefficient) [4]: 34,075.83 dm^3 mol^−1 cm^−1

Compound: Oc1ccc(/C=C/c2nc3ccccc3s2)cc1 [BZTst2, (E)-4-(2-(benzo[d]thiazol-2-yl)vinyl)phenol]
- SPF [1]: 2.59
- UVA/UVB [1]: 1.46
- UVAPF [1]: 5.69
- ʎc (critical wavelength) [1]: 384 nm
- remaining activity at 10 µM [2]: 22.9 ± 14.6%
- IC50 [2]: 2900 nM
- FRAP [3]: 1122.44 ± 25.14 µmolTE/g
- ʎmax [4]: 354.4 nm
- Ɛ (molar extinction coefficient) [4]: 30,835.44 dm^3 mol^−1 cm^−1

Compound: COc1ccc(/C=C/c2nc3ccccc3s2)cc1 [BZTst3, (E)-2-(4-methoxystyryl)benzo[d]thiazole]
- SPF [1]: 2.26
- UVA/UVB [1]: 1.59
- UVAPF [1]: 3.07
- ʎc (critical wavelength) [1]: 378 nm
- remaining activity at 10 µM [2]: 75.3 ± 19.7%
- FRAP [3]: 178.71 ± 8.17 µmolTE/g
- ʎmax [4]: 351.0 nm
- Ɛ (molar extinction coefficient) [4]: 35,125.63 dm^3 mol^−1 cm^−1

Compound: Oc1ccc(/C=C/c2nc3ccccc3s2)cc1O [BZTst4, (E)-4-(2-(benzo[d]thiazol-2-yl)vinyl)benzene-1,2-diol]
- SPF [1]: 3.87
- UVA/UVB [1]: 1.47
- UVAPF [1]: 7.65
- ʎc (critical wavelength) [1]: 389 nm
- remaining activity at 10 µM [2]: 0.79 ± 0.49%
- IC50 [2]: 700 nM
- FRAP [3]: 5673.33 ± 86.42 µmolTE/g
- ʎmax [4]: 363.3 nm
- Ɛ (molar extinction coefficient) [4]: 22,070.71 dm^3 mol^−1 cm^−1

Compound: COc1ccc(/C=C/c2nc3ccccc3s2)cc1O [BZTst5, (E)-5-(2-(benzo[d]thiazol-2-yl)vinyl)-2-methoxyphenol]
- SPF [1]: 2.91
- UVA/UVB [1]: 0.93
- UVAPF [1]: 2.70
- ʎc (critical wavelength) [1]: 384 nm
- remaining activity at 10 µM [2]: 74 ± 25.8%
- FRAP [3]: 788.09 ± 14.46 µmolTE/g
- ʎmax [4]: 358.0 nm
- Ɛ (molar extinction coefficient) [4]: 22,513.37 dm^3 mol^−1 cm^−1

Compound: COc1cc(/C=C/c2nc3ccccc3s2)ccc1O [BZTst6, (E)-4-(2-(benzo[d]thiazol-2-yl)vinyl)-2-methoxyphenol]
- SPF [1]: 3.43
- UVA/UVB [1]: 1.96
- UVAPF [1]: 14.13
- ʎc (critical wavelength) [1]: 388 nm
- remaining activity at 10 µM [2]: 7.11 ± 4.9%
- IC50 [2]: 950 nM
- FRAP [3]: 3262.22 ± 7.86 µmolTE/g
- ʎmax [4]: 361.2 nm
- Ɛ (molar extinction coefficient) [4]: 16,871.66 dm^3 mol^−1 cm^−1
